Assay results as given in paper PMC4113456, “Atypical Signaling and Functional Desensitization Response of MAS Receptor to Peptide Ligands” (PLoS ONE, 2014).
Changes are numbered by the printed parent chain. Marks after values point to notes of the source that are not given here.

Tests used:
MAS [1] = biological target: T1, MAS (Homo sapiens, UniProt P04201); test: FLIPR calcium assay, induced myc-tagged WT MAS HEK293 stable cell line; assay type: cell-based
T1 construct: expressed in transfected cells
T1 sequence (P04201 1-325): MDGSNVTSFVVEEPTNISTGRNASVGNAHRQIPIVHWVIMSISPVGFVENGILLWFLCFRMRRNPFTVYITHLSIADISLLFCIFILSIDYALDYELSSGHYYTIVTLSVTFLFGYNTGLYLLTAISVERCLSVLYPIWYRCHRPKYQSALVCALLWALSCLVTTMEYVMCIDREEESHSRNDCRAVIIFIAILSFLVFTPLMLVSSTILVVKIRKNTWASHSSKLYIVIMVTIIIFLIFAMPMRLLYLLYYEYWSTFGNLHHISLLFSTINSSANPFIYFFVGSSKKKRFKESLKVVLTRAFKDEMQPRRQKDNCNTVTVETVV
Experimental: The assay was performed using FLIPR Calcium 5 assay kit (Molecular Devices, Sunnyvale, CA). For calcium measurements, cells at a density of 125,000 cells/well in 100 µl medium were seeded onto a 96-well clear bottom black cell culture plate that was pre-coated with poly-L-lysine. In the calcium assays the cell density of 125,000 cells/well was consistently maintained to minimize variability between independent experiments. The cells were seeded in induction media to induce MAS expression or in complete media for negative controls. The plate was maintained in a cell culture incubator for 26–28 h. The cells were then serum starved for 2 h by replacing the medium with 100 µl of serum free DMEM. In the case of pre-treatment with pan-inhibitor of G protein signaling, BIM-46187, the cells were initially serum starved for 1 h by replacing the medium with 50 µl of serum free DMEM. After 1 h, 50 µl of BIM-46187 was added to the cells to a final concentration of 25 µM and treated for another 1 h. Following serum starvation, 100 µl of calcium sensitive dye along with 2x (2.5 mM final concentration) probenecid (Life Technologies, Grand Island, NY) was added to the cells. During this step, AR-inverse agonist or BIM-46187 was also added at desired concentrations to the calcium dye preparation in case of experiments where cells were pre-treated with these inhibitors. The cells were maintained for one hour in the cell culture incubator. Following this, the 96-well plate containing cells loaded with calcium dye and a U-bottom 96-well plate containing ligands at 5x the desired final concentration in D-PBS (1.47 mM KH2PO4, 138 mM NaCl, 2.67 mM KCl, 8.1 mM Na2HPO4, pH 7.3) were allowed to equilibrate for 15 min on a FlexStation 3 instrument (Molecular Devices, Sunnyvale, CA) at 37°C. The plates were further equilibrated on the instrument for 5 min with the lids removed from the plates. The instrument was programmed in FLEX mode to add ligands (50 µl at 5x concentration) to the cells and to monitor the fluorescence before and after adding the ligands. In re-stimulation and antagonism assays the instrument is programmed to add 35 µl of first ligand followed by addition of the second ligand (35 µl) after 10 min. […] Therefore, when using 5x ligand stock the maximum AR-agonist concentration that could be tested was 10 µM.
In the calcium assays, the maximum response and minimum response values in relative fluorescence units (RFU) were extracted by subtracting the corresponding baseline value wherein baseline is defined as the average fluorescence of all time points before addition of ligand.
The kinetic parameter t1/2 (time taken to reach half of the maximum response) was determined using SoftMax Pro software supplied with the FlexStation 3 instrument (Molecular Devices, Sunnyvale, CA).
For re-stimulation assays, the data is expressed as the percentage of maximum agonist stimulation to allow for ready comparison between individual experiments. […] For all the assays, the EC50 and IC50 values were estimated by fitting the data to a three parameter dose response using GraphPad Prism software (GraphPad, La Jolla, CA).

MAS M244A mutant = biological target: T2, MAS M244A mutant (Homo sapiens, UniProt P04201, M244A); test: IP1 assay, M244A MAS mutant stable cell line; assay type: cell-based
T2 construct: expressed in transfected cells
T2 sequence (P04201 1-325 M244A): T1 sequence (P04201 1-325) with M244A
From the text: The WT MAS expression construct was synthesized with an N-terminal myc-tag (Figure 1) by GenScript (Piscataway, NJ). The myc-tagged WT MAS from this vector was initially sub-cloned into pcDNA3.1 and later sub-cloned into tetracycline/doxycycline inducible vector pcDNA 5/TO (Life Technologies, Grand Island, NY). Four different ligand binding MAS mutants (F112A, I191A, M244A and T270A) were created using site-directed mutagenesis of WT myc-tagged MAS in pcDNA3.1 or pcDNA 5/TO vector background (Agilent Technologies, Santa Clara, CA). […]
IP1 levels in the cells were measured using the IP-One Tb kit (Cisbio US, Bedford, MA). […] Time-resolved ratiometric fluorescence emission measurements at 665 nm and 620 nm were taken after excitation at 343 nm on FlexStation 3 instrument. […]
(§1) For re-stimulation assays, the data is expressed as the percentage of maximum agonist stimulation to allow for ready comparison between individual experiments. For the IP1 assay, a standard curve was generated using the 4-Parameter logistic equation fit of the HTRF readings of IP1 standards using the SoftMax Pro software. […] In the luciferase assay, the luminescence measurements (RLU) are presented as a ratio of firefly to renilla luciferase activity. […]

MAS T270A mutant = biological target: T3, MAS T270A mutant (Homo sapiens, UniProt P04201, T270A); test: IP1 assay, T270A MAS mutant stable cell line; assay type: cell-based
T3 construct: expressed in transfected cells
T3 sequence (P04201 1-325 T270A): T1 sequence (P04201 1-325) with T270A
From the text: (§2) The WT MAS expression construct was synthesized with an N-terminal myc-tag (Figure 1) by GenScript (Piscataway, NJ). The myc-tagged WT MAS from this vector was initially sub-cloned into pcDNA3.1 and later sub-cloned into tetracycline/doxycycline inducible vector pcDNA 5/TO (Life Technologies, Grand Island, NY). Four different ligand binding MAS mutants (F112A, I191A, M244A and T270A) were created using site-directed mutagenesis of WT myc-tagged MAS in pcDNA3.1 or pcDNA 5/TO vector background (Agilent Technologies, Santa Clara, CA). WT MAS receptor without an epitope tag was constructed by replacing the 5′ portion of the myc-tagged WT MAS in pcDNA 5/TO by untagged MAS sequence from a plasmid construct provided as a gift from Arena Pharmaceuticals, Inc. (San Diego, CA). The sequences of all WT and mutant MAS genes in plasmid constructs were verified by capillary DNA sequencing at the Genomics Core at Lerner Research Institute (Cleveland, OH).
IP1 levels in the cells were measured using the IP-One Tb kit (Cisbio US, Bedford, MA). For the assay, cells were seeded onto a 384-well low volume white cell culture plate at a density of 25,000 cells/well in 20 µl of induction or complete medium. In the IP1 assays the cell density of 25,000 cells/well was consistently maintained to minimize variability between independent experiments. The cells were maintained in a cell culture incubator for 26–28 h. […] Time-resolved ratiometric fluorescence emission measurements at 665 nm and 620 nm were taken after excitation at 343 nm on FlexStation 3 instrument. […]
as §1

MAS [2] = tested on: MAS; parameters: method as in ref [9] (a number printed in a supplementary file, which may have a reference list of its own: not looked up in the article's list); conditions: Rat MAS; ref [9]; read-out: EC50 (IP1 assay); cited from earlier work
MAS I191A mutant = biological target: T4, MAS I191A mutant (Homo sapiens, UniProt P04201, I191A); test: IP1 assay, I191A MAS mutant stable cell line; assay type: cell-based
T4 construct: expressed in transfected cells
T4 sequence (P04201 1-325 I191A): T1 sequence (P04201 1-325) with I191A
From the text: as §2
IP1 levels in the cells were measured using the IP-One Tb kit (Cisbio US, Bedford, MA). For the assay, cells were seeded onto a 384-well low volume white cell culture plate at a density of 25,000 cells/well in 20 µl of induction or complete medium. In the IP1 assays the cell density of 25,000 cells/well was consistently maintained to minimize variability between independent experiments. The cells were maintained in a cell culture incubator for 26–28 h. The cells were then serum starved for 2 h by replacing the medium with 7 µl of serum free DMEM/F-12. During this step, 7 µl of serum free DMEM/F-12 was also added to the wells to which IP1 standards would be subsequently added. Following serum starvation, 7 µl of ligands and serially diluted IP1-standards prepared at 2x concentration in stimulation buffer (10 mM Hepes, 1 mM CaCl2, 0.5 mM MgCl2, 4.2 mM KCl, 146 mM NaCl, 5.5 mM glucose, 50 mM LiCl, pH 7.4) were added to the appropriate wells. The cells were then placed in the cell culture incubator for 4 h. Later, 3 µl each of d2-labeled IP1 and anti-IP1 cryptate Tb conjugated antibody diluted in lysis buffer was added sequentially to all the wells and the plate was incubated overnight in the dark at room temperature. Time-resolved ratiometric fluorescence emission measurements at 665 nm and 620 nm were taken after excitation at 343 nm on FlexStation 3 instrument. […]
as §1

COc1cc([N+](=O)[O-])ccc1S(=O)(=O)N1CC(CN2CCN(c3ccccn3)CC2)C(c2cccc(F)c2)C1 (stereo not drawn) [AR-agonist]
t1/2 (time taken to reach half of the maximal calcium response), Calcium assay (MAS [1]; WT MAS): 31.2 ± 2.1 s
EC50 (MAS [1]; WT MAS, induced cells): 1500 ± 300 nM
Fold over WT, EC50 Calcium assay (MAS [1]; WT construct): 1
EC50, IP1 assay (MAS M244A mutant): cbd
EC50, IP1 assay (MAS T270A mutant): cbd
EC50 (MAS [2]): 170 nM
EC50 (MAS I191A mutant): 2400 ± 1100 nM
Fold over WT, EC50 IP1 assay (MAS I191A mutant): 1.8

C=CCCN1CCC2(CC1)CN(C(=O)c1c(F)cccc1F)c1ccc(Cl)cc12 [AR-inverse]
IC50 (MAS [1]; WT MAS, induced cells, inhibition of constitutive activity): 900 ± 600 nM
IC50, IP1 assay (MAS M244A mutant): cbd
Fold over WT, IC50 IP1 assay (MAS T270A mutant): 2.5**
IC50 (MAS T270A mutant): 1700 ± 30 nM
EC50 (MAS [2]): 348 nM
Fold over WT, IC50 IP1 assay (MAS I191A mutant): 1.3
IC50 (MAS I191A mutant): 900 ± 100 nM
